Measurements: US12215104B2, “Anti-biofilm compounds” (UNIVERSITY OF LOUISVILLE RESEARCH FOUNDATION, INC., priority 2018, dated 2025)

These molecules were tested on P. gingivalis adherence to S. gordonii (assay: Inhibition of P. gingivalis adherence to S. gordonii in two-species biofilm model). Details: Group III.
Assay type: cell-based, P. gingivalis ATCC33277; S. gordonii DL-1
Source text: To assess the functional activity of the click products, compounds 28-57 (Groups I and II) and 90-124 (Group III) were examined for inhibition of P. gingivalis adherence to S. gordonii using an established biofilm model system as described in the Section 4.2.1 [41]. For each compound tested, an IC50 value for adherence inhibition was approximated after quantifying the ratio of green to red fluorescence and these values are shown in Tables 2, 3 and 4. Compounds were classified as strong (IC50<10 μM), moderate (IC50=10-20 μM) or weak (IC50>20 μM) inhibitors of adherence. Twelve compounds were identified as strong inhibitors and an additional ten compounds were classified as moderate inhibitors. […] Compounds 54, 56, 93, 95, 100, 102, 103, and 115 were also tested to determine if they affect the growth of P. gingivalis or S. gordonii. […] The sulfoxide group does impart asymmetry to the molecule; however, the mixture of enantiomers, assuming the peracid oxidation was racemic, was not separated and bioassayed. The Group III active compounds (95-117) all contain the 1,3,5-trisubstituted-2,4,6-triazine modeled after the Katzenellenbogen rendering of an active motif whereby the key leucine residues which mimicked the VXXLL receptor box lie in a triangular arrangement. While the original iteration of the Katzenellenbogen VXXLL mimics were the hydrophobic 3,5-disubstituted-di-N-alkyamino-triazine motifs, we introduced the hydrophobic 2- and 4-(fluorophenyl)amino groups at positions 3 and 5 of the 2,4,6-triazine (See Compounds 102, 111, 115, 122).
P. gingivalis ATCC33277 was grown in reduced trypticase soy broth (Difco) supplemented with 0.5 percent yeast extract, 1 μg/mL menadione, and 5 μg/mL hemin. Twenty five milliliters of medium were reduced for 24 h under anaerobic conditions by equilibrating in an atmosphere consisting of 10% CO2, 10% H2, and 80% N2. Following equilibration, P. gingivalis was inoculated in the media and grown for 48 h at 37° C. under anaerobic conditions. S. gordonii DL-1 (1) was cultured aerobically without shaking in brain heart infusion (BHI) broth supplemented with 1 percent yeast extract for 16 hours at 37° C. For some compounds that inhibited P. gingivalis adherence to S. gordonii, we determined their affect the planktonic growth of P. gingivalis and S. gordonii. Broth cultures were grown as described above and compared to cultures grown in the absence of the compound. Cell density of each culture was determined by measuring the optical density at 600 nm (O.D.600 nm) after 24 h of growth. The percent growth inhibition/stimulation was calculated using the following equation: [(O.D.600 nm of the control/O.D.600 nm of the culture grown in the presence of compound)−1]×100.
Two species biofilms were formed essentially as previously described. To prepare bacterial cells for biofilm culture, 10 ml of an overnight S. gordonii culture was centrifuged at 5600 rpm for 5 min and the cell pellet was suspended in 1 mL sterile PBS. Subsequently, 20 μL of 5 mg/ml hexidium iodide (Molecular Probes) was added to the cell suspension and incubated for 15 min with gentle shaking at room temperature in the dark. The labeled cells were centrifuged as described above, washed with phosphate buffered saline (10 mM Na2HPO4, […], […], and 2.7 mM KCl, pH 7.2; [PBS]) and the cell pellet was suspended in PBS at a final O.D.600 nm of 0.8. Similarly, 10 mL of a 48 h culture of P. gingivalis was centrifuged at 5600 rpm for 15 min, the cell pellet was suspended in 1 mL PBS and 20 μl of 5(6)-carboxyfluorescein N-hydroxysuccinimide ester (4 mg/ml, Molecular Probes, Inc.) was added. After incubation for 30 min with gentle shaking at room temperature in the dark, the suspension was centrifuged and washed as described above and suspended in PBS at a final O.D.600 nm of 0.4. […]

Compound	IC50 [µM]
CCN(CC)c1nc(-c2cn(-c3cccc(-c4nc(-c5ccccc5)c(-c5ccccc5)o4)c3)nn2)nc(N(CC)CC)n1 [Compound 90]	20.7
CCN(CC)c1nc(-c2cn(-c3ccc(-c4nc(-c5ccccc5)c(-c5ccccc5)o4)cc3)nn2)nc(N(CC)CC)n1 [Compound 91]	> 60
CCN(CC)c1nc(-c2cn(-c3cccc(-c4nc(-c5ccc(F)cc5)c(-c5ccc(F)cc5)o4)c3)nn2)nc(N(CC)CC)n1 [Compound 92]	> 60
CCN(CC)c1nc(-c2cn(-c3cccc(-c4nc(-c5ccc(Cl)cc5)c(-c5ccc(Cl)cc5)o4)c3)nn2)nc(N(CC)CC)n1 [Compound 94]	16
CCN(CC)c1nc(-c2cn(-c3cccc(-c4nc(-c5ccc(OC)cc5)c(-c5ccc(OC)cc5)o4)c3)nn2)nc(N(CC)CC)n1 [Compound 96]	> 60
CCN(CC)c1nc(-c2cn(-c3ccc(-c4nc(-c5ccc(OC)cc5)c(-c5ccc(OC)cc5)o4)cc3)nn2)nc(N(CC)CC)n1 [Compound 97]	36.6
CCN(CC)c1nc(-c2cn(-c3cccc(-c4nc(-c5ccco5)c(-c5ccco5)o4)c3)nn2)nc(N(CC)CC)n1 [Compound 98]	> 60
CCN(CC)c1nc(-c2cn(-c3ccc(-c4nc(-c5ccco5)c(-c5ccco5)o4)cc3)nn2)nc(N(CC)CC)n1 [Compound 99]	> 60
Fc1ccccc1Nc1nc(Nc2ccccc2F)nc(-c2cn(-c3ccc(-c4nc(-c5ccccc5)c(-c5ccccc5)o4)cc3)nn2)n1 [Compound 101]	> 60
Fc1ccccc1Nc1nc(Nc2ccccc2F)nc(-c2cn(-c3cccc(-c4nc(-c5ccc(Cl)cc5)c(-c5ccc(Cl)cc5)o4)c3)nn2)n1 [Compound 104]	33.8
Fc1ccccc1Nc1nc(Nc2ccccc2F)nc(-c2cn(-c3ccc(-c4nc(-c5ccc(Cl)cc5)c(-c5ccc(Cl)cc5)o4)cc3)nn2)n1 [Compound 105]	> 60
COc1ccc(-c2nc(-c3cccc(-n4cc(-c5nc(Nc6ccccc6F)nc(Nc6ccccc6F)n5)nn4)c3)oc2-c2ccc(OC)cc2)cc1 [Compound 106]	> 60
COc1ccc(-c2nc(-c3ccc(-n4cc(-c5nc(Nc6ccccc6F)nc(Nc6ccccc6F)n5)nn4)cc3)oc2-c2ccc(OC)cc2)cc1 [Compound 107]	40
Fc1ccccc1Nc1nc(Nc2ccccc2F)nc(-c2cn(-c3cccc(-c4nc(-c5ccco5)c(-c5ccco5)o4)c3)nn2)n1 [Compound 108]	> 60
Fc1ccccc1Nc1nc(Nc2ccccc2F)nc(-c2cn(-c3ccc(-c4nc(-c5ccco5)c(-c5ccco5)o4)cc3)nn2)n1 [Compound 109]	> 60
Fc1ccc(Nc2nc(Nc3ccc(F)cc3)nc(-c3cn(-c4ccccc4-c4nc(-c5ccccc5)c(-c5ccccc5)o4)nn3)n2)cc1 [Compound 110]	> 60
Fc1ccc(Nc2nc(Nc3ccc(F)cc3)nc(-c3cn(-c4ccc(-c5nc(-c6ccccc6)c(-c6ccccc6)o5)cc4)nn3)n2)cc1 [Compound 112]	> 60
Fc1ccc(Nc2nc(Nc3ccc(F)cc3)nc(-c3cn(-c4ccccc4-c4nc(-c5ccc(F)cc5)c(-c5ccc(F)cc5)o4)nn3)n2)cc1 [Compound 113]	49.2
Fc1ccc(Nc2nc(Nc3ccc(F)cc3)nc(-c3cn(-c4cccc(-c5nc(-c6ccc(F)cc6)c(-c6ccc(F)cc6)o5)c4)nn3)n2)cc1 [Compound 114]	> 60

Same assay, conditions: Table 2, Group I triazoles; concentration reducing ratio of green (P. gingivalis) to red (S. gordonii) fluorescence by 50%; approximated

Compound	IC50 [µM]
[O-][S+](Cc1nc(-c2ccccc2)c(-c2ccccc2)o1)c1ccc(-n2cc(-c3cccnc3)nn2)cc1 (racemic) [Compound 28, 4,5-Diphenyl-2-(((4-(4-(pyridin-3-yl)-1H-1,2,3-triazol-1-yl)phenyl)sulfinyl)methyl) oxazole]	> 60
[O-][S+](Cc1nc(-c2ccccc2)c(-c2ccccc2)o1)c1ccc(-n2cc(-c3ccc(F)cc3)nn2)cc1 (centres unmarked) [Compound 29]	> 60
[O-][S+](Cc1nc(-c2ccccc2)c(-c2ccccc2)o1)c1ccc(-n2cc(-c3cccc(F)c3)nn2)cc1 (centres unmarked) [Compound 30]	47.3
COc1ccccc1-c1cn(-c2ccc([S+]([O-])Cc3nc(-c4ccccc4)c(-c4ccccc4)o3)cc2)nn1 (centres unmarked) [Compound 31]	> 60
[O-][S+](Cc1nc(-c2ccccc2)c(-c2ccccc2)o1)c1ccc(-n2cc(-c3ccccc3C(F)(F)F)nn2)cc1 (centres unmarked) [Compound 32]	> 60
COc1ccc2cc(-c3cn(-c4ccc([S+]([O-])Cc5nc(-c6ccccc6)c(-c6ccccc6)o5)cc4)nn3)ccc2c1 (centres unmarked) [Compound 33]	> 60
CCCCCc1ccc(-c2cn(-c3ccc([S+]([O-])Cc4nc(-c5ccccc5)c(-c5ccccc5)o4)cc3)nn2)cc1 (centres unmarked) [Compound 34]	> 60
[O-][S+](Cc1nc(-c2ccccc2)c(-c2ccccc2)o1)c1ccc(-n2cc(-c3ccc(Oc4ccccc4)cc3)nn2)cc1 (centres unmarked) [Compound 35]	> 60
[O-][S+](Cc1nc(-c2ccccc2)c(-c2ccccc2)o1)c1ccc(-n2cc(-c3cc(C(F)(F)F)cc(C(F)(F)F)c3)nn2)cc1 (centres unmarked) [Compound 36]	> 60
O=S(=O)(Cc1nc(-c2ccccc2)c(-c2ccccc2)o1)c1ccc(-n2cc(-c3cccnc3)nn2)cc1 [Compound 37]	> 60
O=S(=O)(Cc1nc(-c2ccccc2)c(-c2ccccc2)o1)c1ccc(-n2cc(-c3ccc(F)cc3)nn2)cc1 [Compound 38]	15.7
O=S(=O)(Cc1nc(-c2ccccc2)c(-c2ccccc2)o1)c1ccc(-n2cc(-c3cccc(F)c3)nn2)cc1 [Compound 39]	33.6
COc1ccccc1-c1cn(-c2ccc(S(=O)(=O)Cc3nc(-c4ccccc4)c(-c4ccccc4)o3)cc2)nn1 [Compound 40]	13.1
O=S(=O)(Cc1nc(-c2ccccc2)c(-c2ccccc2)o1)c1ccc(-n2cc(-c3ccccc3C(F)(F)F)nn2)cc1 [Compound 41]	> 60
COc1ccc2cc(-c3cn(-c4ccc(S(=O)(=O)Cc5nc(-c6ccccc6)c(-c6ccccc6)o5)cc4)nn3)ccc2c1 [Compound 42]	> 60
CCCCCc1ccc(-c2cn(-c3ccc(S(=O)(=O)Cc4nc(-c5ccccc5)c(-c5ccccc5)o4)cc3)nn2)cc1 [Compound 43]	36.6
O=S(=O)(Cc1nc(-c2ccccc2)c(-c2ccccc2)o1)c1ccc(-n2cc(-c3ccc(Oc4ccccc4)cc3)nn2)cc1 [Compound 44]	16.5
O=S(=O)(Cc1nc(-c2ccccc2)c(-c2ccccc2)o1)c1ccc(-n2cc(-c3cc(C(F)(F)F)cc(C(F)(F)F)c3)nn2)cc1 [Compound 45]	38.5

Same assay, conditions: Table 3, Group II click products; concentration reducing green to red fluorescence ratio by 50%; approximated

Compound	IC50 [µM]
[O-][S+](Cc1nc(-c2ccc(F)cc2)c(-c2ccc(F)cc2)o1)c1ccc(-n2cc(-c3cccc(F)c3)nn2)cc1 (centres unmarked) [Compound 46]	5.3
[O-][S+](Cc1nc(-c2ccc(F)cc2)c(-c2ccc(F)cc2)o1)c1ccc(-n2cc(-c3ccc(F)cc3)nn2)cc1 (centres unmarked) [Compound 47]	35.9
COc1ccccc1-c1cn(-c2ccc([S+]([O-])Cc3nc(-c4ccc(F)cc4)c(-c4ccc(F)cc4)o3)cc2)nn1 (centres unmarked) [Compound 48]	7.2
[O-][S+](Cc1nc(-c2ccc(Cl)cc2)c(-c2ccc(Cl)cc2)o1)c1ccc(-n2cc(-c3cccc(F)c3)nn2)cc1 (centres unmarked) [Compound 49]	15.1
[O-][S+](Cc1nc(-c2ccc(Cl)cc2)c(-c2ccc(Cl)cc2)o1)c1ccc(-n2cc(-c3ccc(F)cc3)nn2)cc1 (centres unmarked) [Compound 50]	39.8
COc1ccccc1-c1cn(-c2ccc([S+]([O-])Cc3nc(-c4ccc(Cl)cc4)c(-c4ccc(Cl)cc4)o3)cc2)nn1 (centres unmarked) [Compound 51]	10.2
O=S(=O)(Cc1nc(-c2ccc(Cl)cc2)c(-c2ccc(Cl)cc2)o1)c1ccc(-n2cc(-c3cccc(F)c3)nn2)cc1 [Compound 55]	18.2
